# From paper PMC9284491 (Nature Communications, 2022)
# “Also recorded” adds a separate entry of the source.
# Assay: Treatment-emergent adverse events (MedDRA, NCI-CTCAE v4.03), safety populations
# Type: in vivo, human
# Description: Overall safety in Parts A and B was assessed by tabulating TEAEs, coded using the Medical Dictionary for Regulatory Activities (MedDRA) version 22.1, and graded according to NCI-CTCAE v4.03 criteria. TEAEs were classified as related or unrelated to amcenestrant therapy based upon the local investigating physician’s clinical judgment. The safety population included all patients exposed to at least one dose of the study treatment. Results were analyzed using descriptive statistics.
compound,measurement,setting,value
"O=C(O)c1ccc2c(c1)CCCC(c1ccc(Cl)cc1Cl)=C2c1ccc(O[C@H]2CCN(CCCF)C2)cc1 [amcenestrant, 6-(2,4-Dichlorophenyl)−5-[4-[(3S)−1-(3-fluoropropyl)pyrrolidin-3-yl]oxyphenyl]−8,9-dihydro-7H-benzo[7]annulene-2-carboxylic acid]","Headache, Treatment-related TEAEs, All Grades","Part B, 400 mg QD (N = 49)",0 n (%)
same,"Headache, Treatment-related TEAEs, Grade 1","Part B, 400 mg QD (N = 49)",0 n (%)
same,"Headache, Treatment-related TEAEs, Grade 2","Part B, 400 mg QD (N = 49)",0 n (%)
same,"Headache, Treatment-related TEAEs, Grade ≥3","Part B, 400 mg QD (N = 49)",0 n (%)
same,"Hot flush, TEAEs, All grades","Part B, 400 mg QD (N = 49)",7 (14.3) n (%)
same,"Hot flush, TEAEs, Grade 1","Part B, 400 mg QD (N = 49)",5 (10.2) n (%)
same,"Hot flush, TEAEs, Grade 2","Part B, 400 mg QD (N = 49)",2 (4.1) n (%)
same,"Hot flush, TEAEs, Grade ≥3","Part B, 400 mg QD (N = 49)",0 n (%)
same,"Hot flush, Treatment-related TEAEs, All Grades","Part B, 400 mg QD (N = 49)",5 (10.2) n (%)
same,"Hot flush, Treatment-related TEAEs, Grade 1","Part B, 400 mg QD (N = 49)",5 (10.2) n (%)
same,"Hot flush, Treatment-related TEAEs, Grade 2","Part B, 400 mg QD (N = 49)",0 n (%)
same,"Hot flush, Treatment-related TEAEs, Grade ≥3","Part B, 400 mg QD (N = 49)",0 n (%)
same,"Hypertension, TEAEs, All grades","Part B, 400 mg QD (N = 49)",4 (8.2) n (%)
same,"Hypertension, TEAEs, Grade 1","Part B, 400 mg QD (N = 49)",0 n (%)
same,"Hypertension, TEAEs, Grade 2","Part B, 400 mg QD (N = 49)",4 (8.2) n (%)
same,"Hypertension, TEAEs, Grade ≥3","Part B, 400 mg QD (N = 49)",0 n (%)
same,"Hypertension, Treatment-related TEAEs, All Grades","Part B, 400 mg QD (N = 49)",1 (2.0) n (%)
same,"Hypertension, Treatment-related TEAEs, Grade 1","Part B, 400 mg QD (N = 49)",0 n (%)
same,"Hypertension, Treatment-related TEAEs, Grade 2","Part B, 400 mg QD (N = 49)",1 (2.0) n (%)
same,"Hypertension, Treatment-related TEAEs, Grade ≥3","Part B, 400 mg QD (N = 49)",0 n (%)
same,"Nasopharyngitis, TEAEs, All grades","Part B, 400 mg QD (N = 49)",3 (6.1) n (%)
same,"Nasopharyngitis, TEAEs, Grade 1","Part B, 400 mg QD (N = 49)",3 (6.1) n (%)
same,"Nasopharyngitis, TEAEs, Grade 2","Part B, 400 mg QD (N = 49)",0 n (%)
same,"Nasopharyngitis, TEAEs, Grade ≥3","Part B, 400 mg QD (N = 49)",0 n (%)
same,"Nasopharyngitis, Treatment-related TEAEs, All Grades","Part B, 400 mg QD (N = 49)",0 n (%)
same,"Nasopharyngitis, Treatment-related TEAEs, Grade 1","Part B, 400 mg QD (N = 49)",0 n (%)
same,"Nasopharyngitis, Treatment-related TEAEs, Grade 2","Part B, 400 mg QD (N = 49)",0 n (%)
same,"Nasopharyngitis, Treatment-related TEAEs, Grade ≥3","Part B, 400 mg QD (N = 49)",0 n (%)
same,"Nausea, TEAEs, All grades","Part B, 400 mg QD (N = 49)",11 (22.4) n (%)
same,"Nausea, TEAEs, Grade 1","Part B, 400 mg QD (N = 49)",9 (18.4) n (%)
same,"Nausea, TEAEs, Grade 2","Part B, 400 mg QD (N = 49)",1 (2.0) n (%)
same,"Nausea, TEAEs, Grade ≥3","Part B, 400 mg QD (N = 49)",1 (2.0) n (%)
same,"Nausea, Treatment-related TEAEs, All Grades","Part B, 400 mg QD (N = 49)",2 (4.1) n (%)
same,"Nausea, Treatment-related TEAEs, Grade 1","Part B, 400 mg QD (N = 49)",2 (4.1) n (%)
same,"Nausea, Treatment-related TEAEs, Grade 2","Part B, 400 mg QD (N = 49)",0 n (%)
same,"Nausea, Treatment-related TEAEs, Grade ≥3","Part B, 400 mg QD (N = 49)",0 n (%)
same,"Pain in extremity, TEAEs, All grades","Part B, 400 mg QD (N = 49)",3 (6.1) n (%)
same,"Pain in extremity, TEAEs, Grade 1","Part B, 400 mg QD (N = 49)",2 (4.1) n (%)
same,"Pain in extremity, TEAEs, Grade 2","Part B, 400 mg QD (N = 49)",1 (2.0) n (%)
same,"Pain in extremity, Treatment-related TEAEs, All Grades","Part B, 400 mg QD (N = 49)",0 n (%)
same,"Pain in extremity, Treatment-related TEAEs, Grade 1","Part B, 400 mg QD (N = 49)",0 n (%)
same,"Pain in extremity, Treatment-related TEAEs, Grade 2","Part B, 400 mg QD (N = 49)",0 n (%)
same,"Pain in extremity, Treatment-related TEAEs, Grade ≥3","Part B, 400 mg QD (N = 49)",0 n (%)
same,"Paresthesia, TEAEs, All grades","Part B, 400 mg QD (N = 49)",3 (6.1) n (%)
same,"Paresthesia, TEAEs, Grade 1","Part B, 400 mg QD (N = 49)",3 (6.1) n (%)
same,"Paresthesia, TEAEs, Grade 2","Part B, 400 mg QD (N = 49)",0 n (%)
same,"Paresthesia, TEAEs, Grade ≥3","Part B, 400 mg QD (N = 49)",0 n (%)
same,"Paresthesia, Treatment-related TEAEs, All Grades","Part B, 400 mg QD (N = 49)",1 (2.0) n (%)
same,"Paresthesia, Treatment-related TEAEs, Grade 1","Part B, 400 mg QD (N = 49)",1 (2.0) n (%)
same,"Paresthesia, Treatment-related TEAEs, Grade 2","Part B, 400 mg QD (N = 49)",0 n (%)
same,"Paresthesia, Treatment-related TEAEs, Grade ≥3","Part B, 400 mg QD (N = 49)",0 n (%)
same,"Pyrexia, TEAEs, All grades","Part B, 400 mg QD (N = 49)",4 (8.2) n (%)
same,"Pyrexia, TEAEs, Grade 1","Part B, 400 mg QD (N = 49)",3 (6.1) n (%)
same,"Pyrexia, TEAEs, Grade 2","Part B, 400 mg QD (N = 49)",1 (2.0) n (%)
same,"Pyrexia, TEAEs, Grade ≥3","Part B, 400 mg QD (N = 49)",0 n (%)
same,"Pyrexia, Treatment-related TEAEs, All Grades","Part B, 400 mg QD (N = 49)",0 n (%)
same,"Pyrexia, Treatment-related TEAEs, Grade 1","Part B, 400 mg QD (N = 49)",0 n (%)
same,"Pyrexia, Treatment-related TEAEs, Grade 2","Part B, 400 mg QD (N = 49)",0 n (%)
same,"Pyrexia, Treatment-related TEAEs, Grade ≥3","Part B, 400 mg QD (N = 49)",0 n (%)
same,"Rhinitis allergic, TEAEs, All grades","Part B, 400 mg QD (N = 49)",3 (6.1) n (%)
same,"Rhinitis allergic, TEAEs, Grade 1","Part B, 400 mg QD (N = 49)",2 (4.1) n (%)
same,"Rhinitis allergic, TEAEs, Grade 2","Part B, 400 mg QD (N = 49)",1 (2.0) n (%)
same,"Rhinitis allergic, TEAEs, Grade ≥3","Part B, 400 mg QD (N = 49)",0 n (%)
same,"Rhinitis allergic, Treatment-related TEAEs, All Grades","Part B, 400 mg QD (N = 49)",0 n (%)
same,"Rhinitis allergic, Treatment-related TEAEs, Grade 1","Part B, 400 mg QD (N = 49)",0 n (%)
same,"Rhinitis allergic, Treatment-related TEAEs, Grade 2","Part B, 400 mg QD (N = 49)",0 n (%)
same,"Rhinitis allergic, Treatment-related TEAEs, Grade ≥3","Part B, 400 mg QD (N = 49)",0 n (%)
same,"Urinary tract infection, TEAEs, All grades","Part B, 400 mg QD (N = 49)",5 (10.2) n (%)
same,"Urinary tract infection, TEAEs, Grade 1","Part B, 400 mg QD (N = 49)",0 n (%)
same,"Urinary tract infection, TEAEs, Grade 2","Part B, 400 mg QD (N = 49)",5 (10.2) n (%)
same,"Urinary tract infection, TEAEs, Grade ≥3","Part B, 400 mg QD (N = 49)",0 n (%)
same,"Urinary tract infection, Treatment-related TEAEs, All Grades","Part B, 400 mg QD (N = 49)",1 (2.0) n (%)
same,"Urinary tract infection, Treatment-related TEAEs, Grade 1","Part B, 400 mg QD (N = 49)",0 n (%)
same,"Urinary tract infection, Treatment-related TEAEs, Grade 2","Part B, 400 mg QD (N = 49)",1 (2.0) n (%)
same,"Urinary tract infection, Treatment-related TEAEs, Grade ≥3","Part B, 400 mg QD (N = 49)",0 n (%)
same,"Vomiting, TEAEs, All grades","Part B, 400 mg QD (N = 49)",14 (28.6) n (%)
same,"Vomiting, TEAEs, Grade 1","Part B, 400 mg QD (N = 49)",10 (20.4) n (%)
same,"Vomiting, TEAEs, Grade 2","Part B, 400 mg QD (N = 49)",3 (6.1) n (%)
same,"Vomiting, TEAEs, Grade ≥3","Part B, 400 mg QD (N = 49)",1 (2.0) n (%)
same,"Vomiting, Treatment-related TEAEs, All Grades","Part B, 400 mg QD (N = 49)",4 (8.2) n (%)
same,"Vomiting, Treatment-related TEAEs, Grade 1","Part B, 400 mg QD (N = 49)",4 (8.2) n (%)
same,"Vomiting, Treatment-related TEAEs, Grade 2","Part B, 400 mg QD (N = 49)",0 n (%)
same,"Vomiting, Treatment-related TEAEs, Grade ≥3","Part B, 400 mg QD (N = 49)",0 n (%)
same,"treatment-related TEAE arthralgia, patients","Part B, 400 mg QD (n = 49)",8.2%
same,"treatment-related TEAE constipation, patients","Part B, 400 mg QD (n = 49)",6.1%
same,"treatment-related TEAE gastroesophageal reflux disease, patients","Part B, 400 mg QD (n = 49)",6.1%
same,"treatment-related TEAE hot flush, patients","Part B, 400 mg QD (n = 49)",10.2%
same,"treatment-related TEAE vomiting, patients","Part B, 400 mg QD (n = 49)",8.2%
same,patients with serious TEAEs,"Part B, 13/49",26.5%
same,patients with at least one Grade ≥3 TEAE,"Part B, 16/49, none considered related to amcenestrant",32.7%
same,cardiac non-treatment-related TEAE,"Part B, Grade 1 sinus bradycardia",One cardiac non-treatment-related TEAE was reported
same,Grade ≥3 treatment-related adverse events,Parts A and B,No Grade ≥3 treatment-related adverse events; also recorded: no treatment-related TEAEs of Grade ≥3 occurred
same,clinically significant cardiac or eye safety findings,Parts A and B,no clinically significant cardiac or eye safety findings were observed
